From patent US8592174B2, “Peptidase substrates” (bioMérieux, S.A., priority 2009, dated 2013)

Legend:
Experiment in all cases: pH variation detection on modified chromID Coli medium (Example 6)
Type in all cases: cell-based
Design in all cases: Coloration strength: key to the marks not given beside the values
Conditions in all cases: 50 mg/l, 24 h 37° C.
[1] = test system: Citrobacter braakii 05 06 109
Method: (§1) The media were incubated for 24 hours at 37° C., then the spots formed were examined visually.

E. coli 05 04 163 = test system: E. coli 05 04 163
Method: as §1

E. coli 05 06 052 = test system: E. coli 05 06 052
Method: as §1

[2] = test system: Edwarsiella tarda 75 07 053
Method: as §1

[3] = test system: Enterobacter amnigenus 05 06 046
Method: as §1

[4] = test system: Enterobacter intermedius 05 04 110
Method: as §1

[5] = test system: Ewingella americana 05 06 045
Method: as §1

Hafnia alvei 05 04 201 = test system: Hafnia alvei 05 04 201
Method: as §1

[6] = test system: Klebsiella oxytoca 05 04 175
Method: as §1

[7] = test system: Kluyvera ascorbata 84 08 084
Method: as §1

[8] = test system: Leclercia adecarboxylata 97 04 041
Method: as §1

[9] = test system: Morganella morganii ssp morganii 97 08 046
Method: as §1

[10] = test system: Pantoea agglomerans 04 05 057
Method: as §1

[11] = test system: Pectobacterium carotovorum 84 06 059
Method: as §1

[12] = test system: Proteus vulgaris 04 05 062
Method: as §1

[13] = test system: Providencia stuartii 92 12 101
Method: as §1

[14] = test system: Raoultella ornithinolytica 05 04 140
Method: as §1

[15] = test system: Salmonella ser. Enteritidis 94 06 001
Method: as §1

Salmonella spp 93 03 001 = test system: Salmonella spp 93 03 001; for Coloration strength: key: +++: good growth/high coloration strength; ++: medium growth/medium coloration strength; +: weak growth/weak coloration strength; −: no growth/no coloration; for Growth: key: +++: good growth/high coloration strength; ++: medium growth/medium coloration strength; +: weak growth/weak coloration strength; −: no growth/no coloration
Method: as §1

[16] = test system: Shigella flexneri 92 11 059; for Coloration strength: key: +++: good growth/high coloration strength; ++: medium growth/medium coloration strength; +: weak growth/weak coloration strength; −: no growth/no coloration; for Growth: key: +++: good growth/high coloration strength; ++: medium growth/medium coloration strength; +: weak growth/weak coloration strength; −: no growth/no coloration
Method: as §1

Shigella spp 76 02 055 = test system: Shigella spp 76 02 055
Method: as §1

[17] = test system: Yersinia enterocolitica 05 04 143
Method: as §1

[18] = test system: Yersinia enterocolitica ssp enterocolitica 92 11 061
Method: as §1

Nc1ccc(C=Cc2ccnc3ccccc23)cc1
Color [1]: Orange | Coloration strength [1]: ++ | Growth ([1]; control C: ++): ++ | Color (E. coli 05 04 163): Orange | Coloration strength (E. coli 05 04 163): ++ | Growth (E. coli 05 04 163; control C: ++): ++ | Color (E. coli 05 06 052): Orange | Coloration strength (E. coli 05 06 052): ++ | Growth (E. coli 05 06 052; control C: ++): ++ | Color [2]: Orange | Coloration strength [2]: ++ | Growth ([2]; control C: ++): ++ | Color [3]: Orange | Coloration strength [3]: ++ | Growth ([3]; control C: ++): ++ | Color [4]: Orange | Coloration strength [4]: ++ | Growth ([4]; control C: ++): + | Color [5]: Orange | Coloration strength [5]: ++ | Growth ([5]; control C: ++): ++ | Color (Hafnia alvei 05 04 201): Orange | Coloration strength (Hafnia alvei 05 04 201): ++ | Growth (Hafnia alvei 05 04 201; control C: ++): ++ | Color [6]: Orange | Coloration strength [6]: ++ | Growth ([6]; control C: ++): ++ | Color [7]: Orange | Coloration strength [7]: ++ | Growth ([7]; control C: ++): ++ | Color [8]: Orange | Coloration strength [8]: ++ | Growth ([8]; control C: ++): ++ | Color [9]: Orange | Coloration strength [9]: ++ | Growth ([9]; control C: ++): ++ | Color [10]: Orange | Coloration strength [10]: ++ | Growth ([10]; control C: ++): ++ | Color [11]: Orange | Coloration strength [11]: ++ | Growth ([11]; control C: ++): + | Color [12]: Orange | Coloration strength [12]: ++ | Growth ([12]; control C: ++): ++ | Color [13]: Orange | Coloration strength [13]: ++ | Growth ([13]; control C: ++): ++ | Color [14]: Orange | Coloration strength [14]: ++ | Growth ([14]; control C: ++): ++ | Color [15]: Orange | Coloration strength [15]: ++ | Growth ([15]; control C: ++): ++ | Color (Salmonella spp 93 03 001): Orange | Coloration strength (Salmonella spp 93 03 001): ++ | Growth (Salmonella spp 93 03 001; control C: ++): ++ | Color [16]: Orange | Coloration strength [16]: ++ | Growth ([16]; control C: ++): ++ | Color (Shigella spp 76 02 055): Orange | Coloration strength (Shigella spp 76 02 055): ++ | Growth (Shigella spp 76 02 055; control C: ++): ++ | Color [17]: Orange | Coloration strength [17]: ++ | Growth ([17]; control C: ++): + | Color [18]: Orange | Coloration strength [18]: ++ | Growth ([18]; control C: ++): ++
